From patent publication US5610038A, “Thiangazole, its preparation, compositions and use thereof” (Ciba-Geigy Corporation, priority 1990, dated 1997)
In brackets after ≈: the same amount, converted by molar mass.

Assays:
[1] = system: benzimidazole-resistant nematodes; conditions: ruminants, doses tolerated by the host animal; cited from earlier work
[2] = system: adult liver flukes; conditions: ruminants, doses tolerated by the host animal; cited from earlier work
[3] = system: Botrytis cinerea; test: Antibiotic activity, agar diffusion test / series dilution test; type: cell-based
Protocol: (§1) The antibiotic activity is determined by means of an agar diffusion test with reference to the inhibiting areola diameter, or from the culture density in a series dilution test.

[4] = system: Gibberella fujikuroi; test: as above; type: cell-based
Protocol: as §1

[5] = system: Mucor hiemalis; test: as above; type: cell-based
Protocol: as §1

[6] = system: Pythium debaryanum; test: as above; type: cell-based
Protocol: as §1

[7] = system: Rhizopus arrhizus; test: as above; type: cell-based
Protocol: as §1

[8] = system: Ustilago maydis; test: MIC, agar diffusion test / series dilution test; type: cell-based; conditions: Mycosarcoma maydis
Protocol: as §1

[9] = system: sub-mitochondrial particles of deer heart; test: NADH oxidation in sub-mitochondrial particles; type: biochemical
[10] = system: nematodes such as Haemonchus contortus and Trichostrongylus colubriformis; test: F.1. Trial with sheep infested with nematodes; type: in vivo; conditions: single dose
Protocol: F.1. Trial with sheep infested with nematodes such as Haemonchus contortus and Trichostrongylus colubriformis
Thiangazole is administered in the form of a suspension using a stomach probe or by intraruminal injection to sheep that have previously been artificially infested with nematodes, such as Haemonchus contortus and Trichostrongylus colubriformis. 1 to 3 animals are used for each dose per trial. Each sheep is treated only once with a single dose.
(§2) A first evaluation is made by comparing the number of worm eggs excreted in the faeces of the sheep before and after treatment.
Seven to ten days after treatment the sheep are sacrificed and dissected. The evaluation is carded out by counting the worms remaining in the intestine after the treatment. Sheep simultaneously and similarly infested but untreated are used as a control or comparison.

[11] = system: cestodes such as Moniezia benedeni; test: F.2. Trial with sheep infested with cestodes; type: in vivo; conditions: dose of less than 20 mg/kg body weight, single dose
Protocol: F.2. Trial with sheep infested wtih cestodes such as Moniezia benedeni
The active ingredient is administered in the form of a suspension using a stomach probe or by intraruminal injection to sheep that have previously been artificially infested with cestodes, such as Moniezia benedeni. 1 to 3 animals are used for each dose per trial. Each sheep is treated only once with a single dose. Seven to ten days after treatment the sheep are sacrificed and dissected. The evaluation is carded out by counting the worms remaining in the intestine after the treatment. Sheep simultaneously and similarly infested but untreated are used as a control or comparison. In this test thiangazole effects an approximately 90% reduction in cestode infestation at a dose of less than 20 mg/kg body weight.

[12] = system: Dermanyssus gallinae; test: F.3. Action against Dermanyssus gallinae; type: in vivo; conditions: 72 h, after 3 days, read-out: activity (mortality of the mites)
Protocol: F.3. Action against Dermanyssus gallinae
2 to 3 ml of a solution comprising 100 ppm of test compound, and approximately 200 mites at various stages of development, are placed in a glass container that is open at the top. The container is then closed with a cotton wool plug, shaken for 10 minutes until the mites are completely wetted, and then inverted for a short time so that the remaining test solution can be absorbed by the cotton wool. After 3 days, the mortality of the mites is determined as a percentage by counting the number of dead individuals.

[13] = system: Lucille sericata; test: F.4. Action against Lucille sericata; type: in vivo; conditions: 10-0.01 ppm, eggs/larvae, 30° C., four days
Protocol: F.4. Action against Lucille sericata
Freshly deposited eggs of the blow fly Lucille sericata are introduced in small portions (30-50 eggs) into test tubes in which 4 ml of nutrient medium have previously been mixed with 1 ml of test solution in the intermediate dilution required for the final concentration. After inoculation of the culture medium the test tubes are closed with a cotton wool plug and incubated in an incubator at 30° C. for four days. By this time, larvae approximately 1 cm long (stage 3) have developed in the medium that, for comparison, has not been treated. If a compound is active, the larvae are at this time either dead or moribund and clearly retarded. The test is carried out simultaneously at concentrations of from 10-0.01 ppm. The activity is measured at the lowest fully active concentration (LC 100). The test includes both compounds that are effective by contact and those that are effective as an ingested poison. Repellence is also taken into account, since the larvae migrate from the medium and starve.

[14] = system: Lucilia cuprina; test: F.5. Action against Lucilia cuprina; type: in vivo; conditions: test solution comprising 16 ppm, evaluation after 96 hours
Protocol: F.5. Action against Lucilia cuprina Freshly deposited eggs of the blow fly species Lucilia cuprina are introduced in small portions (30-50 eggs) into test tubes in which 4 ml of nutrient medium have previously been mixed with 1 ml of test solution comprising 16 ppm of the test compound. After inoculation of the culture medium the test tubes are closed with a cotton wool plug and incubated in an incubator at 30° C. for four days. By this time, larvae approximately 1 cm long (stage 3) have developed in the untreated medium. If a compound is active the larvae are at this time either dead or clearly retarded. Evaluation is effected after 96 hours.

[15] = system: Fasciola hepatica; test: F.6. Trial with sheep infested with Fasciola hepatica; type: in vivo; conditions: doses of less than 50 mg of active ingredient/kg of body weight, single dose
Protocol: F.6. Trial with sheep infested with Fasciola hepatica
The active ingredient is administered in the form of a suspension using a stomach probe or by intraruminal injection to sheep that have previously been artificially infested with Fasciola hepatica. 3 animals am used for each dose per trial. Each animal is treated only once with a single dose.
as §2
Three to four weeks after treatment the sheep are sacrificed and dissected. The evaluation is carried out by counting the liver flukes remaining in the gall-bladder ducts after treatment. Sheep simultaneously and similarly infested but untreated are used as a control or comparison. The difference in the number of liver flukes counted in the two groups gives the degree of effectiveness of the test compound.

[16] = system: Heliothis virescens; test: F.7. Ovicidal/larvicidal action against Heliothis virescens; type: in vivo; conditions: 400 ppm, egg deposits on cotton, 8 days
Protocol: F.7. Ovicidal/larvicidal action against Heliothis virescens
Egg deposits of Heliothis virescens on cotton are sprayed with an aqueous emulsion comprising 400 ppm of test compound. 8 days later, the percentage of eggs which have hatched and the survival rate of the caterpillars are evaluated in comparison with untreated controls (% reduction in the population).

[17] = system: Aphis craccivora; test: F.8. Action against Aphis craccivora; type: in vivo; conditions: pea seedlings, 3 and 6 days, read-out: activity (percentage reduction in the population)
Protocol: F.8. Action against Aphis craccivora
Pea seedlings are infested with Aphis craccivora and then sprayed with a spray mixture comprising 400 ppm of the test compound, and incubated at 20° C. Evaluation is made 3 and 6 days later. The percentage reduction in the population (% activity) is determined by comparing the number of dead aphids on the treated plants with that on untreated plants.

[18] = system: Tetranychus urticae; test: F.9 Action against Tetranychus urticae; type: in vivo; conditions: 144 h, bean plants, 6 days at 25° C., read-out: activity (percentage reduction in the population)
Protocol: F.9 Action against Tetranychus urticae
Young bean plants are populated with a mixed population of Tetranychus urticae and sprayed one day later with an aqueous emulsion comprising 400 ppm of the test compound. The plants are then incubated for 6 days at 25° C. and then evaluated. The percentage reduction in the population (% activity) is determined by comparing the number of dead eggs, larvae and adults on the treated plants with that on untreated plants.

[19] = system: Heliothis virescens caterpillars; test: F.10. Action against Heliothis virescens caterpillars; type: in vivo; conditions: 400 ppm, soybean plants, first-stage caterpillars, 6 days
Protocol: F. 10. Action against Heliothis virescens caterpillars
(§3) Young soybean plants are sprayed with an aqueous emulsion comprising 400 ppm of the test compound. After the spray coating has dried, the soybean plants are populated with 10 Heliothis virescens caterpillars in the first stage and placed in a plastics container. Evaluation is made 6 days later. The percentage reduction in the population or the percentage reduction in feeding damage(% activity) is determined by comparing the number of dead caterpillars and the feeding damage on the treated plants with that on untreated plants.

[20] = system: Plutella xylostella caterpillars; test: F.11. Action against Plutella xylostella caterpillars; type: in vivo; conditions: cabbage plants, third-stage caterpillars, 3 days
Protocol: F. 11. Action against Plutella xylostella caterpillars
as §3, with “cabbage” for “soybean”, “Plutella xylostella” for “Heliothis virescens”, “third” for “first”, “3” for “6”, “damage (%” for “damage(%”, “plants. […] The activity is over 80%.” for “plants.”

## CCCSc1ccc2nc(NC(=O)OC)[nH]c2c1 [Albendazole]
[1]
  anthelmintic activity: totally inadequate
[2]
  anthelmintic activity: totally inadequate

## CNC(=O)c1nc(C2(C)CSC(C3(C)CSC(C4(C)CSC(C=Cc5ccccc5)=N4)=N3)=N2)oc1C (stereo not shown) [Thiangazole, thiangazole]
[3]
  growth inhibition of fungus: inhibits the growth
[4]
  growth inhibition of fungus: inhibits the growth
[5]
  growth inhibition of fungus: inhibits the growth
[6]
  growth inhibition of fungus: inhibits the growth
[7]
  growth inhibition of fungus: inhibits the growth
[8]
  MIC: 3.2 µg/mL (≈ 5.93 µM)
[9]
  inhibition of NADH oxidation: inhibits NADH oxidation
[10]; 20 mg of active ingredient per kg of body weight
  reduction of nematode infestation: virtually complete reduction
[10]; stomach probe or intraruminal injection
  reduction in nematode infestation: sharp reduction in nematode infestation
[11]
  reduction in cestode infestation: approximately 90%
[12]
  mortality at 100 ppm: ≥ 50%
[13]
  activity at lowest fully active concentration (LC 100): full activity even at low concentrations
[14]
  activity against larvae: very good activity
[15]
  activity against Fasciola hepatica (liver flukes remaining): good activity
[16]
  ovicidal/larvicidal activity (% reduction in the population): good activity (The good pesticidal activity of the compounds of formulae I and Ia according to the invention corresponds to a mortality of at least 50-60% of the mentioned pests)
[17]
  mortality at 400 ppm: ≥ 50%
[18]
  mortality at 400 ppm: ≥ 50%
[19]
  activity (reduction in the population or in feeding damage): very good activity
[20]; 400 ppm
  activity (reduction in the population or in feeding damage): good activity (The good pesticidal activity of the compounds of formulae I and Ia according to the invention corresponds to a mortality of at least 50-60% of the mentioned pests)
[20]; Plutella xylostella, 72 h, read-out: % activity (reduction in the population or in feeding damage)
  activity at 400 ppm: > 80%
